TGI data for 22 compounds are collected here from PubChem BioAssay (NCI).

Each structure is given as a SMILES string.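 1) Cells in 96-well plates. 2) Compound, 48 h, 5 concentrations. 3) Linear interpolation between surrounding doses. 4) Unreached endpoint = highest concentration. The concentration for full growth arrest is given as TGI.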 Some results are limits rather than exact numbers.

Test in all cases: NCI anticancer screen, dose series, 48 h
Test [1] relates to SK-MEL-5 melanoma.
In test [2] the test system is SR leukemia.
Test [3] deals with A498 renal.
The subject of test [4] is RPMI-8226 leukemia.
Test [5] deals with BT-549 breast.
In test [6] the test system is TK-10 renal.
Test [7] has as its system HL-60(TB) leukemia.
Test [8] relates to SK-MEL-28 melanoma.
For test [9], the system named is M14 melanoma.
The test system of test [10] is 786-0 renal.
The test system of test [11] is T-47D breast.
The subject of test [12] is UACC-62 melanoma.
In test [13] the test system is IGROV1 ovarian.

Take `CC(C)=CC1C(C(=O)Oc2ccccc2C(C)C)C1(C)C` (stereo not drawn): the TGI in test [1] was 33.9 µM; in test [2] it was 61.7 µM; in test [3], 37.1 µM; in test [4], 48.2 µM; in test [5], above 100 µM; in test [6], 96 µM. The TGI in test [7] is 38.5 µM; in test [8] it was above 100 µM; in test [9] it was above 100 µM; in test [10], 42.5 µM; in test [11], 50.3 µM; in test [12] it was above 100 µM. The TGI in test [13] is above 100 µM.
`CCOC(=O)/C=C(/C(=O)OCC)n1cc(C)c(=O)n(Cc2cnnn2COCCOC(C)=O)c1=O`: the TGI in test [1] worked out at 51.5 µM; in [2], 39.6 µM; in test [3] it was 90 µM; in test [4], 23.8 µM; in [5] it was 31.7 µM; in [6], 12.3 µM. The TGI in test [7] stood at 13.5 µM; in test [8] it was 47.5 µM; in test [9], 31.8 µM; in test [10], 22.5 µM; in test [11], 46.7 µM; in test [12], 30.5 µM. In [13], this compound showed a TGI of 32.7 µM.
As for `O=P(O)(O)c1ccc(-c2ccc(I)cc2)cc1`, the TGI in test [1], in test [2], in test [4], in test [5], in [6] and in test [7] was above 100 µM each time. Moreover, the TGI in [8], in [9], in test [10], in test [11], in test [12] and in [13] was above 100 µM throughout.
As to `Clc1cc(-c2ccccc2)nc(Nc2nc3ccccc3[nH]2)n1`, the TGI in [1] is above 100 µM; in test [2], 10.5 µM; in test [3], 98.3 µM; in [4], above 100 µM; in test [5] it was 52.9 µM; in [6], above 100 µM. In addition, the TGI was above 100 µM in test [7]; 63 µM in test [9]; 34.2 µM in test [10]; above 100 µM in test [11]; 35.4 µM in test [12]; 33.2 µM in test [13].
With `O=C1c2cc(I)ccc2N2CCN=C2N1Cc1ccccc1`, the TGI in test [1] is above 100 µM; in test [2] it was above 100 µM; in test [3], 94.1 µM; in test [4], above 100 µM; in test [5], above 100 µM; in [6], above 100 µM. Further, the TGI in test [7], in test [8], in test [9], in test [10], in test [11] and in test [13] was above 100 µM throughout.
On to `CC(=O)OCC1OC(n2cnc3nc(Br)[nH]c(=O)c32)C(OC(C)=O)C1OC(C)=O` (stereo not drawn), for which the TGI in [1], in test [2], in test [3], in [4], in test [5] and in test [6] was above 100 µM throughout. The TGI in [7], in [9], in test [10], in test [11], in [12] and in test [13] was above 100 µM each time.
In the case of `CN(C)Cc1c(O)ccc2c1c1c(n2C)C(=O)c2ccccc2C1=O`, the TGI is 23.1 µM in [1]; above 100 µM in test [2]; 14.7 µM in [3]; above 100 µM in [4]; 42.1 µM in test [5]; 50.7 µM in test [6]. For the same compound, the TGI in [7] is above 100 µM; in test [8] it was 20 µM; in [9], above 100 µM; in test [10] it was above 100 µM; in [11] it was above 100 µM; in test [12] it was 18.2 µM. Also, the TGI in [13] amounted to 85.2 µM.
As to `Cc1ncc([N+](=O)[O-])n1CC[N+](C)([O-])CCCCn1ccnc1[N+](=O)[O-]` (stereo not drawn), the TGI in test [1], in test [2], in test [3], in test [4], in test [5] and in [6] was above 100 µM in each case. The TGI in test [7], in test [8], in test [9], in [10], in test [11] and in [12] was above 100 µM each time. The same compound gave a TGI in test [13] above 100 µM.
As for `COC(=O)CNC(=O)C(Cc1ccccc1)NC(=O)c1ccc(-c2ccc(Cl)cc2Cl)o1` (stereo not drawn), the TGI in test [1] is above 100 µM; in [2], 36 µM; in test [3] it was 38.8 µM; in test [4], 51.9 µM; in test [5], above 100 µM; in test [6], 75.2 µM. For the same compound, the TGI in [7] was 41.2 µM; in test [8] it was above 100 µM; in [9] it was above 100 µM; in [10], 38.7 µM; in [11], above 100 µM; in [12], 65.1 µM. Further, in test [13], the TGI was above 100 µM.
As for `COC(=O)Nc1nc2ccc(S(=O)(=O)Nc3ccccn3)cc2[nH]1`, the TGI in [1] is above 100 µM; in test [2] it was 64.1 µM; in test [3], above 100 µM; in [4] it was 40.6 µM; in test [5], above 100 µM; in test [6], 70.3 µM. For the same compound, the TGI in [7] was 34.8 µM; in test [8], 56.2 µM; in test [9], above 100 µM; in test [10], above 100 µM; in test [11], above 100 µM; in test [12] it was above 100 µM. Moreover, in test [13], the TGI was above 100 µM.
Consider `COc1cc(C2S/C(=C/c3ccccc3)C(=O)N2Cc2ccccc2)cc(OC)c1OC` (stereo not drawn), for which the TGI in test [1] was above 100 µM; in test [2], 57.2 µM; in [3], above 100 µM; in test [4], above 100 µM; in [5], above 100 µM; in test [6] it was above 100 µM. In addition, the TGI is above 100 µM in [7]; above 100 µM in [8]; above 100 µM in test [9]; above 100 µM in test [10]; 41.1 µM in [11]; above 100 µM in [12]. Besides, the TGI in test [13] was above 100 µM.
`CC(C)(C)NC1=NC(C(F)(F)F)(C(F)(F)F)NC(=O)N1`: the TGI in test [1] was 80.5 µM; in test [2] it was above 100 µM; in [4], above 100 µM; in test [5] it was above 100 µM; in test [6], above 100 µM; in test [7], 59.6 µM. The TGI in [8], in [9], in [10], in [11], in test [12] and in [13] was above 100 µM throughout.
Take `Cc1cc2cc3cc(C)c(N)cc3nc2cc1N`: the TGI in test [1] is 14.6 µM; in test [2], 1.44 µM; in test [3], 1.89 µM; in test [4], 1.31 µM; in test [5], above 44.5 µM; in test [6] it was 1.62 µM. Further, the TGI was 11 µM in test [7]; 2.94 µM in test [8]; 21.9 µM in test [9]; 1.75 µM in [10]; 2.43 µM in [11]; 2.3 µM in test [12]. This compound showed a TGI in [13] of 1.7 µM.
Turning to `CSc1ncc2c(n1)-c1ccccc1OC2N1CCOCC1` (stereo not drawn), the TGI in test [1] was above 100 µM; in test [2], above 100 µM; in [3] it was 56.7 µM; in [4], above 100 µM; in test [5] it was above 100 µM; in test [6], above 100 µM. Moreover, the TGI in [7] was 83.9 µM; in test [9] it was above 100 µM; in [10], above 100 µM; in [11] it was 80.3 µM; in [12] it was above 100 µM; in test [13] it was above 100 µM.
`Nn1c(Nc2ccc(S(N)(=O)=O)cc2)nnc(/C=C/c2c(O)ccc3ccccc23)c1=O`: the TGI in test [1] came out at 28.7 µM; in test [2], 25.1 µM; in [3], 73.6 µM; in [4], 26.7 µM; in test [5], 40.4 µM; in test [7], 28.6 µM. For the same compound, the TGI in [8] worked out at 53.5 µM; in test [9] it was 69.8 µM; in test [10] it was 66.8 µM; in [11] it was 40.6 µM; in test [12], 49.9 µM; in [13], 0.942 µM.
Regarding `Cn1c(-c2ccc[se]2)ccc1-c1ccc(C=O)[se]1`, the TGI is above 100 µM in test [1]; above 100 µM in [2]; 3.01 µM in test [3]; above 70.2 µM in test [4]; 65.4 µM in test [5]; 0.439 µM in test [6]. The TGI in test [7] is above 100 µM; in test [8], above 100 µM; in test [9], above 100 µM; in [10], above 100 µM; in test [11], 12.4 µM; in test [13], 0.487 µM.
With `Cc1cc2nc3c(C#N)c4c(c(Nc5ccc(F)cc5)n3c2cc1C)CCC4`, the TGI in test [1], in test [2], in [4], in test [5], in test [6] and in test [7] was above 100 µM each time. Further, the TGI in [8], in test [9], in test [10], in test [11], in test [12] and in [13] was above 100 µM in each case.
Consider `CC#C[C@]1(O)CCC2[C@@H]3CCC4=CC(=O)CCC4=C3[C@@H](c3ccc(N(C)C)cc3)C[C@@]21C` (stereo partly drawn), for which the TGI in test [1] amounted to 24.6 µM; in [2], 37.1 µM; in test [4], 7.15 µM; in [5], 50.7 µM; in test [6], 43.1 µM; in test [7] it was 38 µM. The TGI is 29.5 µM in test [8]; 32.1 µM in [9]; 37.2 µM in test [10]; above 100 µM in test [11]; 18.6 µM in test [12].
For the compound `CCOP(=O)(CCCC(O)CNc1nc(N)nc(Cl)c1N=Nc1ccc(Cl)cc1)OCC` (stereo not drawn), the TGI in test [1] was 15.5 µM; in test [2] it was 6.82 µM; in [3], 20.7 µM; in test [4], 8.23 µM; in test [5], 20.8 µM; in test [6], 13.6 µM. In addition, the TGI in [7] amounted to 4.19 µM; in [8], 20.8 µM; in test [10], 17.9 µM; in test [11], 23.2 µM; in test [12], 19.1 µM; in test [13], 26.1 µM.
Take `CN(c1ccccc1)S(=O)(=O)c1ccc([N+](=O)[O-])cc1`: the TGI in [2], in test [4], in [5], in test [6], in [7] and in test [8] was above 100 µM in each case. Further, the TGI in test [9], in test [10] and in test [11] was above 100 µM throughout.
`CC(=O)OCC1OC(N2C(=O)NC(=O)C3C=C4CCCCC4=CC32)CC1OC(C)=O` (stereo not drawn): the TGI in test [2], in [3], in test [4], in [5], in test [6] and in test [7] was above 100 µM throughout. For the same compound, the TGI in test [8], in test [9], in test [10], in test [11], in [12] and in test [13] was above 100 µM in each case.
As for `COC(=O)CN(CC(=O)NCCCBr)C1CCCCC1N(CC(=O)OC)CC(=O)OC` (stereo not drawn), the TGI in test [1], in test [2], in test [3], in [4], in [5] and in test [6] was above 100 µM in each case. Besides, the TGI in [7], in test [8], in test [10], in test [11], in [12] and in test [13] was above 100 µM each time.
